{"source": "patent US6685840B2", "about": "“Method for determining the dissolution rate of a solid water treatment product” (Ondeo Nalco Company, priority 2002, dated 2004)", "experiment": "Dissolution (release) rate of the ingredients of a solid water treatment tablet in standard cooling water", "type": "physicochemical", "set-up": "key: *: value was below detection limits for this moiety", "text": "After the solid water treatment product has been formed it must be tested to determine its dissolution rate in water. Test water that is formulated to closely match the type of water found in the industrial water system of interest is provided. For example, “standard” test water for cooling water in a cooling tower typically has the following features: 60 ppm Ca^2+, 18 ppm Mg^2+, 134 ppm HCO3^−, 53 ppm Cl^− and 72 ppm SO4^2−. A typical scale formation test for a model or simulation boiler typically has these concentrations of scaling contaminants in the boiler water; 10 ppm Calcium as CaCO3, 5 ppm Magnesium as CaCO3, 5 ppm silica as SiO2. Alkalinity such as caustic (NaOH) is added in sufficient quantity to maintain a pH of typically between 10.0 and 11.0 in the boiler water.\nIn order to determine the dissolution rate of the solid water treatment product the solid water treatment product is placed in the test water and allowed to dissolve. A fluorometer is provided and the fluorescent signal of the Fluorescent Tracer present in the solid water treatment product is measured using the fluorometer. The fluorescent signal is measured at regular intervals.\nA tablet of solid cooling water treatment product of Formulation 1, {27.6% benzotriazole, 70.4% 1-hydroxyethylidene-1,1-diphosphonic acid and 2% 1,3,6,8-pyrenetetrasulfonic acid, sodium salt} is made. The tablet weighs 0.9081 grams. The tablet is placed in standard cooling water {60 ppm Ca^2+, 18 ppm Mg^2+, 134 ppm […] , 53 ppm Cl^31 and 72 ppm SO4^2−} and the dissolution rate of each ingredient in the table is measured. The dissolution rate of each ingredient present is measured using analytical techniques suitable for analyzing for each ingredient. The dissolution rate of the benzotriazole (abbreviated “BZT”) is measured using fluorometric analytical techniques, known in the art of analyzing triazoles. The dissolution rate of 1-hydroxyethylidene-1,1-diphosphonic acid (abbreviated “HEDP”) is measured using standard “colorimetric determination” analytical techniques, known in the art of analyzing for diphosphonic acids. The dissolution rate of the 1,3,6,8-pyrenetetrasulfonic acid, sodium salt (abbreviated “PTSA”) is measured using fluorometric analytical techniques.\nThe results of this test are shown in Table 1 Release rates for each ingredient are given in milligrams (‘mg”) per minute (“min.”).\nThe same tablet was made as was made in Example 1, except that this time, the tablet was coated with a polyethylene oxide material with a molecular weight of approximately 15,000 such that the final weight of finished tablet was 1.411 grams. The dissolution rate of the three ingredients in this tablet were determined, using the same analytical techniques as in Example 1.", "key": {"[1]": {"conditions": "Example 1 uncoated tablet of Formulation 1 (0.9081 g), standard cooling water, time 0 minutes"}, "[2]": {"conditions": "Example 1 uncoated tablet of Formulation 1, standard cooling water, time 1 minutes"}, "[3]": {"conditions": "Example 1 uncoated tablet of Formulation 1, standard cooling water, time 5 minutes"}, "[4]": {"conditions": "Example 1 uncoated tablet of Formulation 1, standard cooling water, time 10 minutes"}, "[5]": {"conditions": "Example 1 uncoated tablet of Formulation 1, standard cooling water, time 15 minutes"}, "[6]": {"conditions": "Example 1 uncoated tablet of Formulation 1, standard cooling water, time 30 minutes"}, "[7]": {"conditions": "Example 1 uncoated tablet of Formulation 1, standard cooling water, time 60 minutes"}, "[8]": {"conditions": "Example 1 uncoated tablet of Formulation 1, standard cooling water, time 130 minutes"}, "[9]": {"conditions": "Example 2 tablet coated with polyethylene oxide (1.411 g), time 0 minutes"}, "[10]": {"conditions": "Example 2 tablet coated with polyethylene oxide, time 5 minutes"}, "[11]": {"conditions": "Example 2 tablet coated with polyethylene oxide, time 15 minutes"}, "[12]": {"conditions": "Example 2 tablet coated with polyethylene oxide, time 30 minutes"}, "[13]": {"conditions": "Example 2 tablet coated with polyethylene oxide, time 40 minutes"}, "[14]": {"conditions": "Example 2 tablet coated with polyethylene oxide, time 50 minutes"}, "[15]": {"conditions": "Example 2 tablet coated with polyethylene oxide, time 61 minutes, in mg/min"}, "[16]": {"conditions": "Example 2 tablet coated with polyethylene oxide, time 75 minutes, in mg/min"}, "[17]": {"conditions": "Example 2 tablet coated with polyethylene oxide, time 110 minutes, in mg/min"}, "[18]": {"conditions": "Example 2 tablet coated with polyethylene oxide, time 180 minutes, in mg/min"}}}
{"smiles": "c1ccc2[nH]nnc2c1", "note": "[BZT, benzotriazole]", "values": [{"measurement": "Release Rate", "setting": "[1]", "result": "*"}, {"measurement": "Release Rate", "setting": "[2]", "result": "*"}, {"measurement": "Release Rate", "setting": "[3]", "result": 8.75, "unit": "mg per min."}, {"measurement": "Release Rate", "setting": "[4]", "result": 13.8, "unit": "mg per min."}, {"measurement": "Release Rate", "setting": "[5]", "result": 11.4, "unit": "mg per min."}, {"measurement": "Release Rate", "setting": "[6]", "result": 2.167, "unit": "mg per min."}, {"measurement": "Release Rate", "setting": "[7]", "result": 0.5, "unit": "mg per min."}, {"measurement": "Release Rate", "setting": "[8]", "result": 0.493, "unit": "mg per min."}, {"measurement": "Release Rate", "setting": "[9]", "result": "*"}, {"measurement": "Release Rate", "setting": "[10]", "result": "*"}, {"measurement": "Release Rate", "setting": "[11]", "result": "*"}, {"measurement": "Release Rate", "setting": "[12]", "result": "*"}, {"measurement": "Release Rate", "setting": "[13]", "result": 0.2, "unit": "mg/min"}, {"measurement": "Release Rate", "setting": "[14]", "result": 2.6, "unit": "mg/min"}, {"measurement": "Release Rate", "setting": "[15]", "result": 5.545}, {"measurement": "Release Rate", "setting": "[16]", "result": 4.393}, {"measurement": "Release Rate", "setting": "[17]", "result": 0.829}, {"measurement": "Release Rate", "setting": "[18]", "result": 0.236}]}
{"smiles": "CC(O)(P(=O)(O)O)P(=O)(O)O", "note": "[HEDP, 1-hydroxyethylidene-1,1-diphosphonic acid]", "values": [{"measurement": "Release Rate", "setting": "[1]", "result": "*"}, {"measurement": "Release Rate", "setting": "[2]", "result": "*"}, {"measurement": "Release Rate", "setting": "[3]", "result": 10.5, "unit": "mg per min."}, {"measurement": "Release Rate", "setting": "[4]", "result": 20, "unit": "mg per min."}, {"measurement": "Release Rate", "setting": "[5]", "result": 11.4, "unit": "mg per min."}, {"measurement": "Release Rate", "setting": "[6]", "result": 0.933, "unit": "mg per min."}, {"measurement": "Release Rate", "setting": "[7]", "result": 1.03, "unit": "mg per min."}, {"measurement": "Release Rate", "setting": "[8]", "result": 0.0143, "unit": "mg per min."}, {"measurement": "Release Rate", "setting": "[9]", "result": "*"}, {"measurement": "Release Rate", "setting": "[10]", "result": "*"}, {"measurement": "Release Rate", "setting": "[11]", "result": "*"}, {"measurement": "Release Rate", "setting": "[12]", "result": "*"}, {"measurement": "Release Rate", "setting": "[13]", "result": 1.2, "unit": "mg/min"}, {"measurement": "Release Rate", "setting": "[14]", "result": 2.55, "unit": "mg/min"}, {"measurement": "Release Rate", "setting": "[15]", "result": 8.091}, {"measurement": "Release Rate", "setting": "[16]", "result": 4.893}, {"measurement": "Release Rate", "setting": "Example 2 tablet coated with polyethylene oxide, time 110 minutes", "result": 1.7, "unit": "mg/min"}, {"measurement": "Release Rate", "setting": "[18]", "result": 0.329}]}
{"smiles": "O=S(=O)([O-])c1cc(S(=O)(=O)[O-])c2ccc3c(S(=O)(=O)[O-])cc(S(=O)(=O)[O-])c4ccc1c2c43.[Na+].[Na+].[Na+].[Na+]", "note": "[PTSA, 1,3,6,8-pyrenetetrasulfonic acid, sodium salt]", "values": [{"measurement": "Release Rate", "setting": "[1]", "result": "*"}, {"measurement": "Release Rate", "setting": "[2]", "result": "*"}, {"measurement": "Release Rate", "setting": "[3]", "result": 0.5925, "unit": "mg per min."}, {"measurement": "Release Rate", "setting": "[4]", "result": 0.98, "unit": "mg per min."}, {"measurement": "Release Rate", "setting": "[5]", "result": 0.5, "unit": "mg per min."}, {"measurement": "Release Rate", "setting": "[6]", "result": 0.143, "unit": "mg per min."}, {"measurement": "Release Rate", "setting": "[7]", "result": "*"}, {"measurement": "Release Rate", "setting": "[8]", "result": "*"}, {"measurement": "Release Rate", "setting": "[9]", "result": "*"}, {"measurement": "Release Rate", "setting": "[10]", "result": "*"}, {"measurement": "Release Rate", "setting": "[11]", "result": "*"}, {"measurement": "Release Rate", "setting": "[12]", "result": "*"}, {"measurement": "Release Rate", "setting": "Example 2 tablet coated with polyethylene oxide, time 40 minutes, in mg/min", "result": 0.052}, {"measurement": "Release Rate", "setting": "Example 2 tablet coated with polyethylene oxide, time 50 minutes, in mg/min", "result": 0.121}, {"measurement": "Release Rate", "setting": "Example 2 tablet coated with polyethylene oxide, time 61 minutes", "result": 0.33, "unit": "mg/min"}, {"measurement": "Release Rate", "setting": "[16]", "result": 0.190}, {"measurement": "Release Rate", "setting": "[17]", "result": 0.0571}, {"measurement": "Release Rate", "setting": "[18]", "result": 0.00493}]}
